Measured values: patent US11974995B1, “6′-(4-bromophenyl)-2′-methoxy-3,4′-bipyridine-3′-carbonitrile as an antioxidant compound” (KING FAISAL UNIVERSITY, priority 2023, dated 2024)

Assay: DPPH radical scavenging antioxidant test
Details: 517 nm; for Inhibition (radical scavenging inhibition): 0.2 mL DPPH (0.75 mM), compound 3 μM in ethanol, 30 minutes in the dark
Procedure: The antioxidant activity of 6′-(4-bromophenyl)-2′-methoxy-3,4′-bipyridine-3′-carbonitrile was investigated by 2,2-diphenyl-1-picrylhydrazyl (DPPH) in vitro tests that employ vitamin C as the positive control.
The antioxidant properties of the 6′-(4-bromophenyl)-2′-methoxy-3,4′-bipyridine-3′-carbonitrile compound were studied by adding 0.2 mL DPPH (0.75 mM)) to 6′-(4-bromophenyl)-2′-methoxy-3,4′-bipyridine-3′-carbonitrile (3 μM) (4) in ethanol. After 30 minutes of incubation in the dark, the absorbance was read against a blank at 517 nm. Ascorbic acid (vitamin C) was used as standard antioxidants (positive control). A blank sample was prepared by 0.2 mL of DPPH in 3 mL ethanol. A negative control sample was run using ethanol instead of the sample. The radical scavenging inhibition was calculated using the following equation: […]
The antioxidant activity for the synthesized compound is listed in Table 1, using Vitamin C as a reference.

| SMILES | Inhibition (radical scavenging inhibition) [%] | antioxidant potential to vanish the DPPH radical colors, compared to vitamin C (DPPH in vitro test, vitamin C as positive control) |
| --- | --- | --- |
| COc1nc(-c2ccc(Br)cc2)cc(-c2cccnc2)c1C#N [Product 4, 6′-(4-bromophenyl)-2′-methoxy-3,4′-bipyridine-3′-carbonitrile] | 50 | high potential as an antioxidant compared to vitamin C |
| O=C1O[C@H]([C@@H](O)CO)C(O)=C1O [vit c, Ascorbic acid, reference compound] | 74 |  |
